Laboratory results as given in ChEMBL document CHEMBL5390291, “Glutathione-responsive PROTAC for targeted degradation of ERα in breast cancer cells” (Bioorg Med Chem, 2023).
Active and inactive are the calls of the source. The calls are words filed in the database; no cut-off is given here.

Legend:
[1] = target: T1, von Hippel-Lindau disease tumor suppressor/Estrogen receptor (Homo sapiens, UniProt P03372+P40337); experiment: PROTAC activity at VHL/ER-alpha in human MCF7 cells assessed as ERalpha degradation incubated for 12 hrs by Western blot analysis; format: cell-based
[2] = target: T1, von Hippel-Lindau disease tumor suppressor/Estrogen receptor; experiment: PROTAC activity at VHL/ER-alpha in human MCF7 cells assessed as ERalpha degradation at 2 uM incubated for 1 hr by Western blot analysis relative to control; format: cell-based
Target sequence in this assay (P03372 whole entry, looked up): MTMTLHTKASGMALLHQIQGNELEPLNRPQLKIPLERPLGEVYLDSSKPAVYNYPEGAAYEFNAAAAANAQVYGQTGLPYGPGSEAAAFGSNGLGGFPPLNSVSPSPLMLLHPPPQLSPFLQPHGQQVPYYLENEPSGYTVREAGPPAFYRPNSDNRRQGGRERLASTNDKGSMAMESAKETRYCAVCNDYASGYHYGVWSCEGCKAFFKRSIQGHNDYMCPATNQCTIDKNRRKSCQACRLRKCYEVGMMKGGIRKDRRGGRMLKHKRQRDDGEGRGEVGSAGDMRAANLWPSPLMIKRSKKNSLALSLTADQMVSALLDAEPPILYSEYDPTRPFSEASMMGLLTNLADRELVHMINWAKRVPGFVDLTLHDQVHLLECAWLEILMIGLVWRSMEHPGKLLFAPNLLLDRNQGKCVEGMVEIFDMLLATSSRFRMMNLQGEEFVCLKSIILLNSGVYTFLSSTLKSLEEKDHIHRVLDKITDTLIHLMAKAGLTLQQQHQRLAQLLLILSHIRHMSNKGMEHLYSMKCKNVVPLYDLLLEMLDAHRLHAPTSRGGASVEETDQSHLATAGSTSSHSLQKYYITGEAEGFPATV
Target sequence in this assay (P40337 whole entry, looked up): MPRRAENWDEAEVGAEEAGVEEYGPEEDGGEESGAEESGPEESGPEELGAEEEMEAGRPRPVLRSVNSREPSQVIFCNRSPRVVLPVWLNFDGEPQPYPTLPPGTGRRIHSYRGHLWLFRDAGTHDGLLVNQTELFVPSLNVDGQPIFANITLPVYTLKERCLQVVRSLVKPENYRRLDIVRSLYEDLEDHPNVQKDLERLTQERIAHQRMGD

MCF7 = experiment: Antiproliferative activity against human MCF7 cells assessed as inhibition of cell growth at 10 uM incubated for 9 days by hemocytometer cell counting analysis; format: functional, cell-based; conditions: time 9.0 day
[3] = target: T1, von Hippel-Lindau disease tumor suppressor/Estrogen receptor; experiment: PROTAC activity at VHL/ER-alpha in human MCF7 cells assessed as ERalpha degradation level at 10 uM pretreated with VHL-L followed by compound addition and measured after 6 hrs by Western blot analysis; format: cell-based
Target sequence in this assay (P03372 whole entry, looked up): as the sequence (P03372 whole entry, looked up) above
Target sequence in this assay (P40337 whole entry, looked up): as the sequence (P40337 whole entry, looked up) above

[4] = target: T1, von Hippel-Lindau disease tumor suppressor/Estrogen receptor; experiment: PROTAC activity at VHL/ER-alpha in human MCF7 cells assessed as ERalpha degradation level at 10 uM by Western blot analysis; format: cell-based; conditions: time 3-6 hrs, TDE = time-dependent effect
Target sequence in this assay (P03372 whole entry, looked up): as the sequence (P03372 whole entry, looked up) above
Target sequence in this assay (P40337 whole entry, looked up): as the sequence (P40337 whole entry, looked up) above

BT-474 [5] = experiment: Antiproliferative activity against human BT-474 cells assessed as inhibition of cell growth at 10 uM incubated for 3 days by hemocytometer cell counting analysis; format: functional, cell-based; conditions: time 3.0 day
[6] = target: T1, von Hippel-Lindau disease tumor suppressor/Estrogen receptor; experiment: PROTAC activity at VHL/ER-alpha in human BT-474 cells assessed as ERalpha degradation by Western blot analysis; format: cell-based; conditions: TDE = time-dependent effect
Target sequence in this assay (P03372 whole entry, looked up): as the sequence (P03372 whole entry, looked up) above
Target sequence in this assay (P40337 whole entry, looked up): as the sequence (P40337 whole entry, looked up) above

[7] = target: T1, von Hippel-Lindau disease tumor suppressor/Estrogen receptor; experiment: PROTAC activity at VHL/ER-alpha in human VHL knockdown MCF7 cells assessed as ERalpha degradation level at 10 uM incubated for 6 hrs by Western blot analysis; format: cell-based
Target sequence in this assay (P03372 whole entry, looked up): as the sequence (P03372 whole entry, looked up) above
Target sequence in this assay (P40337 whole entry, looked up): as the sequence (P40337 whole entry, looked up) above

[8] = target: T1, von Hippel-Lindau disease tumor suppressor/Estrogen receptor; experiment: PROTAC activity at VHL/ER-alpha in human MCF7 cells assessed as ERalpha degradation at 10 uM incubated for 4 hrs by Western blot analysis; format: cell-based
Target sequence in this assay (P03372 whole entry, looked up): as the sequence (P03372 whole entry, looked up) above
Target sequence in this assay (P40337 whole entry, looked up): as the sequence (P40337 whole entry, looked up) above

[9] = target: T1, von Hippel-Lindau disease tumor suppressor/Estrogen receptor; experiment: PROTAC activity at VHL/ER-alpha in human MCF7 cells assessed as ERalpha degradation level at 10 uM incubated 3 to 6 hrs in the presence of NEM by Western blot analysis; format: cell-based; conditions: time 3-6 hrs
[10] = GSH reactivity of compound in water/acetonitrile solution assessed as release efficiency at 0.1 mM incubated for 48 hrs by HPLC analysis relative to control; format: physicochemical; conditions: buffer, 100 µM
[11] = target: T1, von Hippel-Lindau disease tumor suppressor/Estrogen receptor; experiment: PROTAC activity at VHL/3 Flag-tagged ER-alpha in HBE cells assessed as ERalpha degradation incubated for 12 hrs by Western blot analysis; format: cell-based; conditions: dose 0.5-10 µM
BT-474 [12] = experiment: Antiproliferative activity against human SLC7A11 knockdown BT-474 cells assessed as inhibition of cell growth at 10 uM incubated after 2 days by hemocytometer cell counting analysis; format: functional, cell-based; conditions: time 2.0 day
[13] = target: T1, von Hippel-Lindau disease tumor suppressor/Estrogen receptor; experiment: PROTAC activity at VHL/ER-alpha in human MCF7 cells assessed as ERalpha degradation at 0.5 uM incubated for 6 hrs by Western blot analysis relative to control; format: cell-based
[14] = Stability of compound in mouse plasma at 0.1 mM incubated for 8 hrs by HPLC analysis; format: ADME, cell-free; conditions: 100 µM
[15] = target: T1, von Hippel-Lindau disease tumor suppressor/Estrogen receptor; experiment: PROTAC activity at VHL/GFP-tagged ER-alpha in human A549 cells assessed as ERalpha degradation by Western blot analysis; format: cell-based
[16] = target: T1, von Hippel-Lindau disease tumor suppressor/Estrogen receptor; experiment: PROTAC activity at VHL/3 Flag-tagged ER-alpha in human NCI-H1299 cells assessed as ERalpha degradation incubated for 12 hrs by Western blot analysis; format: cell-based; conditions: dose 0.5-10 µM
[17] = target: T1, von Hippel-Lindau disease tumor suppressor/Estrogen receptor; experiment: PROTAC activity at VHL/3 Flag-tagged ER-alpha in HBE cells assessed as ERalpha degradation at 0.5 to 10 uM incubated for 6 hr by western blot analysis; format: cell-based; conditions: dose 0.5-10 µM
[18] = target: T1, von Hippel-Lindau disease tumor suppressor/Estrogen receptor; experiment: PROTAC activity at VHL/ER-alpha in human MCF7 cells assessed as ERalpha degradation incubated for 6 hrs by Western blot analysis; format: cell-based; conditions: dose 0.5-2 µM
[19] = target: T1, von Hippel-Lindau disease tumor suppressor/Estrogen receptor; experiment: PROTAC activity at VHL/ER-alpha in human MCF7 cells assessed as ERalpha degradation at 10 uM incubated for 6 hrs by Western blot analysis; format: cell-based
[20] = target: T1, von Hippel-Lindau disease tumor suppressor/Estrogen receptor; experiment: PROTAC activity at VHL/ER-alpha in human MCF7 cells assessed as ERalpha degradation level at 10 uM pretreated with tamoxifen followed by compound addition and measured after 6 hrs by Western blot analysis; format: cell-based
BT-474 [21] = experiment: Antiproliferative activity against human GCLC knockdown BT-474 cells assessed as inhibition of cell growth at 10 uM incubated after 2 days by hemocytometer cell counting analysis; format: functional, cell-based; conditions: time 2.0 day
[22] = target: T1, von Hippel-Lindau disease tumor suppressor/Estrogen receptor; experiment: PROTAC activity at VHL/3 Flag-tagged ER-alpha in human NCI-H1299 cells assessed as ERalpha degradation incubated for 6 hrs by Western blot analysis; format: cell-based; conditions: dose 0.5-10 µM
[23] = target: T1, von Hippel-Lindau disease tumor suppressor/Estrogen receptor; experiment: PROTAC activity at VHL/ER-alpha in human MCF7 cells assessed as ERalpha degradation at 10 uM preincubated for 1 hr with MG132 followed by compound addition and measured after 6 hrs by Western blot analysis; format: cell-based
[24] = Stability of compound in PBS buffer pH 7.4 at 0.1 mM incubated upto 48 hrs by HPLC analysis; format: physicochemical; conditions: pH 7.4, 48 h, 100 µM
[25] = target: T1, von Hippel-Lindau disease tumor suppressor/Estrogen receptor; experiment: PROTAC activity at VHL/3 Flag-tagged ER-alpha in human A549 cells assessed as ERalpha degradation incubated for 12 hrs by Western blot analysis; format: cell-based; conditions: dose 0.5-10 µM

Question: With `Cc1ncsc1-c1ccc(CNC(=O)[C@@H]2C[C@@H](O)CN2C(=O)[C@@H](NC(=O)COCCOCCNC(=O)COc2ccc(C(=O)c3c(-c4ccc(O)cc4)sc4cc(O)ccc34)cc2)C(C)(C)C)cc1` as the compound, how does the DC50 [1] read?
Answer: 188 nM

Question: Which results are given for `CC/C(=C(\c1ccccc1)c1ccc(OCC(=O)NCCOCCOCC(=O)N[C@H](C(=O)N2C[C@H](O)C[C@H]2C(=O)NCc2ccc(-c3scnc3C)cc2)C(C)(C)C)cc1)c1ccccc1`?
Answer: DC50 [1]: 56 nM; Activity ([1]; dose 0.002-2 µM): Dose-Dependent Effect; Activity [2]: 50%

Question: What does the source list for `CC/C(=C(\c1ccccc1)c1ccc(OCC(=O)NCCOCCOCC(=O)N[C@H](C(=O)N2C[C@H](OS(=O)(=O)c3ccccc3[N+](=O)[O-])C[C@H]2C(=O)NCc2ccc(-c3scnc3C)cc2)C(C)(C)C)cc1)c1ccccc1`?
Answer: inhibition (MCF7): Active; Activity [3]: inactive; Activity [4]: Tde; inhibition (BT-474 [5]): Active; Activity [6]: Tde; Activity [7]: inactive; Activity [8]: Active; Activity [9]: inactive; Activity [10]: 70%; Activity [11]: Dose-Dependent Effect; inhibition (BT-474 [12]): inactive; Activity [13]: 50%; Stability [14]: Stable; Activity [15]: Active; Activity [16]: Dose-Dependent Effect; Activity [17]: Active; Activity [18]: Dose-Dependent Effect; Activity [19]: Active; Activity [20]: inactive; inhibition (BT-474 [21]): inactive; Activity [22]: Dose-Dependent Effect; Activity [23]: inactive; Stability [24]: Stable; Activity [25]: Dose-Dependent Effect
